Measurements as given in patent US12264134B2 (Merck Sharp & Dohme LLC, priority 2018, dated 2025).

Target: IDO1 (Homo sapiens, UniProt P14902)
Experiment: IDO1 Cellular Assay in HeLa Cells Stimulated with IFNγ
Format: cell-based
Details: read-out: HeLa Cell Potency, IC50

Sequence of IDO1 (P14902 whole entry): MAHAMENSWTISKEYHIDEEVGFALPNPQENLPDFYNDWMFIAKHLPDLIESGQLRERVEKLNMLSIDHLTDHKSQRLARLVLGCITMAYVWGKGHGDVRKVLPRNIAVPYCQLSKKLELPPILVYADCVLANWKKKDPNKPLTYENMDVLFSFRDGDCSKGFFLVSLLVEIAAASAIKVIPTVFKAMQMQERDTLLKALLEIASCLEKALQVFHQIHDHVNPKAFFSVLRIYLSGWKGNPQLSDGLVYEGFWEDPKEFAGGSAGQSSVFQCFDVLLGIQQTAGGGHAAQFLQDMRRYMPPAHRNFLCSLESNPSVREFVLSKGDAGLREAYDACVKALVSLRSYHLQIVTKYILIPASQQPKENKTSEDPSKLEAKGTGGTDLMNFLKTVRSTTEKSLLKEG

| IC50 [nM] | SMILES |
| --- | --- |
| 28.5 | Cc1cccc(N2CCN(C(=O)Cn3nc(C(=O)N4CCOC(CO)C4)c4c3CCC4)CC2)c1C (centres unmarked) [Example 155, 1-[4-(2,3-dimethylphenyl)piperazin-1-yl]-2-{3-[2-(hydroxymethyl)morpholine-4-carbonyl]-5,6-dihydrocyclopenta[c]pyrazol-1(4H)-yl}ethan-1-one] |
| 19 | Cc1cccc(N2CCN(C(=O)Cn3nc(C(=O)N4CC5CNC5C4)c4c3CCC4)CC2)c1C (centres unmarked) [Example 199, 2-[3-(3,6-diazaspiro[3.2.0]heptane-3-carbonyl)-5,6-dihydrocyclopenta[c]pyrazol-1(4H)-yl]-1-[4-(2,3-dimethylphenyl)piperazin-1-yl]ethan-1-one] |
| 1.93 | Cc1cccc(N2CCN(C(=O)Cn3nc(C(=O)N4CC[C@H](O)[C@@H](F)C4)c4c3C[C@H]3C[C@@H]43)C3(CC3)C2)c1C [Example 359] |
| 13.3 | Cc1cccc(N2CCN(C(=O)Cn3nc(C(=O)N4CCC5NC(=O)OCC5C4)c4c3C[C@H]3C[C@@H]43)CC2)c1C (stereo partly drawn) [Example 240, 6-[(3bR,4aR)-1-{2-[4-(2,3-dimethylphenyl)piperazin-1-yl]-2-oxoethyl}-3b,4,4a,5-tetrahydro-1H-cyclopropa[3,4]cyclopenta[1,2-c]pyrazole-3-carbonyl]octahydro-2H-pyrido[4,3-d][1,3]oxazin-2-one] |
| 4.39 | Cc1cccc(N2CCN(C(=O)Cn3nc(C(=O)N4C[C@@H](C)O[C@@H](C)C4)c4c3C3CC3C4)CC2)c1C (stereo partly drawn) [Example 311, 2-{3-[(2R,6S)-2,6-dimethylmorpholine-4-carbonyl]-4,4a,5,5a-tetrahydro-1H-cyclopropa[4,5]cyclopenta[1,2-c]pyrazol-1-yl}-1-[4-(2,3-dimethylphenyl)piperazin-1-yl]ethan-1-one] |
| 168 | O=C(Cn1nc(C(=O)N2CC[C@H](O)[C@H](F)C2)c2c1CCC2)N1CCN(C2CCc3ccccc32)CC1 (single isomer, unassigned) [Example 439] |
| 5.73 | Cc1cccc(N2CCN(C(=O)Cn3nc(C(=O)N4CC[S+]([O-])CC4)c4c3C[C@H]3C[C@@H]43)CC2)c1C [Example 266, 4-[(3bR,4aR)-1-{2-[4-(2,3-dimethylphenyl)piperazin-1-yl]-2-oxoethyl}-3b,4,4a,5-tetrahydro-1H-cyclopropa[3,4]cyclopenta[1,2-c]pyrazole-3-carbonyl]-1lambda~4~,4-thiazinan-1-one] |
| 2.1 | CNC(=O)NC1CCN(C(=O)c2nn(CC(=O)N3CCN(c4cccc(C)c4C)CC3)c3c2[C@@H]2C[C@@H]2C3)CC1 [Example 217, 1-(1-((3bR,4aR)-1-(2-(4-(2,3-dimethylphenyl)piperazin-1-yl)-2-oxoethyl)-3b,4,4a,5-tetrahydro-1H-cyclopropa[3,4]cyclopenta[1,2-c]pyrazole-3-carbonyl)piperidin-4-yl)-3-methylurea] |
| 67.5 | Cc1c(Cl)cccc1N1CCN(C(=O)Cn2nc(C(=O)N3CCC(NCCO)CC3)c3c2C[C@H]2C[C@@H]32)C2(CC2)C1 [Example 313, 1-[7-(3-chloro-2-methylphenyl)-4,7-diazaspiro[2.5]octan-4-yl]-2-[(3bR,4aR)-3-{4-[(2-hydroxyethyl)amino]piperidine-1-carbonyl}-3b,4,4a,5-tetrahydro-1H-cyclopropa[3,4]cyclopenta[1,2-c]pyrazol-1-yl]ethan-1-one] |
| 0.97 | Cc1cccc(N2CCN(C(=O)Cn3nc(C(=O)N4CC[C@H](O)[C@@H](C)C4)c4c3C[C@H]3C[C@@H]43)CC2)c1C [Example 282, 1-[4-(2,3-dimethylphenyl)piperazin-1-yl]-2-{(3bR,4aR)-3-[(3S,4S)-4-hydroxy-3-methylpiperidine-1-carbonyl]-3b,4,4a,5-tetrahydro-1H-cyclopropa[3,4]cyclopenta[1,2-c]pyrazol-1-yl}ethan-1-one] |
| 27.5 | Cc1cccc(N2CCN(C(=O)Cn3nc(C(=O)N4CCN(C(=O)CO)CC4)c4c3CC(F)(F)CC4)CC2)c1C [Example 22, 2-[6,6-difluoro-3-[4-(2-hydroxyacetyl)piperazine-1-carbonyl]-5,7-dihydro-4H-indazol-1-yl]-1-[4-(2,3-dimethylphenyl)piperazin-1-yl]ethanone] |
| 6.25 | Cc1cccc(N2CCN(C(=O)Cn3nc(C(=O)N4CCC5(CC4)COCC5O)c4c3CCC4)CC2)c1C (centres unmarked) [Example 182, 1-[4-(2,3-dimethylphenyl)piperazin-1-yl]-2-[3-(4-hydroxy-2-oxa-8-azaspiro[4.5]decane-8-carbonyl)-5,6-dihydrocyclopenta[c]pyrazol-1(4H)-yl]ethan-1-one] |
| 6.33 | Cc1cccc(N2CCN(C(=O)Cn3nc(C(=O)N4CCC5(CC4)COCC5O)c4c3CCC4)CC2)c1C (centres unmarked) [Example 114, 1-[4-(2,3-dimethylphenyl)piperazin-1-yl]-2-[3-(4-hydroxy-2-oxa-8-azaspiro[4.5]decane-8-carbonyl)-5,6-dihydrocyclopenta[c]pyrazol-1(4H)-yl]ethan-1-one] |
| 1.9 | Cc1cccc(N2CCN(C(=O)Cn3nc(C(=O)N4CCC5(CC4)CC5CO)c4c3CCC4)CC2)c1C (centres unmarked) [Example 143, 1-[4-(2,3-dimethylphenyl)piperazin-1-yl]-2-{3-[1-(hydroxymethyl)-6-azaspiro[2.5]octane-6-carbonyl]-5,6-dihydrocyclopenta[c]pyrazol-1(4H)-yl}ethan-1-one] |
| 18.3 | Cc1cccc(N2CCN(C(=O)Cn3nc(C(=O)N4CCOC(CO)C4)c4c3CCC4)CC2)c1C (centres unmarked) [Example 103, 1-[4-(2,3-dimethylphenyl)piperazin-1-yl]-2-{3-[2-(hydroxymethyl)morpholine-4-carbonyl]-5,6-dihydrocyclopenta[c]pyrazol-1(4H)-yl}ethan-1-one] |
| 10.3 | Cc1cccc(N2CCN(C(=O)Cn3nc(C(=O)N4CC[C@H](CO)[C@H](F)C4)c4c3CCC4)CC2)c1C [Example 122, 1-[4-(2,3-dimethylphenyl)piperazin-1-yl]-2-{3-[(3S,4R)-3-fluoro-4-(hydroxymethyl)piperidine-1-carbonyl]-5,6-dihydrocyclopenta[c]pyrazol-1(4H)-yl}ethan-1-one] |
| 1.52 | Cc1cccc(N2CCN(C(=O)Cn3nc(C(=O)N4CCC(N5CCNC5=O)CC4)c4c3C[C@H]3C[C@@H]43)CC2)c1C [Example 253, 1-{1-[(3bR,4aR)-1-{2-[4-(2,3-dimethylphenyl)piperazin-1-yl]-2-oxoethyl}-3b,4,4a,5-tetrahydro-1H-cyclopropa[3,4]cyclopenta[1,2-c]pyrazole-3-carbonyl]piperidin-4-yl}imidazolidin-2-one] |
| 3.76 | Cc1cccc(N2CCN(C(=O)Cn3nc(C(=O)N4CCC(CO)(CO)CC4)c4c3C[C@H]3C[C@@H]43)CC2)c1C [Example 221, 2-{(3bR,4aR)-3-[4,4-bis(hydroxymethyl)piperidine-1-carbonyl]-3b,4,4a,5-tetrahydro-1H-cyclopropa[3,4]cyclopenta[1,2-c]pyrazol-1-yl}-1-[4-(2,3-dimethylphenyl)piperazin-1-yl]ethan-1-one] |
| 2.52 | Cc1cccc(N2CCN(C(=O)Cn3nc(C(=O)N4CCO[C@H](CO)C4)c4c3C[C@H]3C[C@@H]43)C3(CC3)C2)c1C [Example 363, 1-(7-(2,3-dimethylphenyl)-4,7-diazaspiro[2.5]octan-4-yl)-2-((3bR,4aR)-3-((S)-2-(hydroxymethyl)morpholine-4-carbonyl)-3b,4,4a,5-tetrahydro-1H-cyclopropa[3,4]cyclopenta[1,2-c]pyrazol-1-yl)ethanone] |
| 1.88 | Cc1c(C(F)F)cccc1N1CCN(C(=O)Cn2nc(C(=O)N3CCC(OCCO)CC3)c3c2C[C@H]2C[C@@H]32)CC1 [Example 345, 1-(4-(3-(difluoromethyl)-2-methylphenyl)piperazin-1-yl)-2-((3bR,4aR)-3-(4-(2-hydroxyethoxy)piperidine-1-carbonyl)-3b,4,4a,5-tetrahydro-1H-cyclopropa[3,4]cyclopenta[1,2-c]pyrazol-1-yl)ethanone] |
| 22.3 | Cc1cccc(N2CCN(C(=O)Cn3nc(C(=O)N4CCC(O)(CF)C4)c4c3CCC4)CC2)c1C (single isomer, unassigned) [Example 482, (R or S)-1-(4-(2,3-dimethylphenyl)piperazin-1-yl)-2-(3-(3-(fluoromethyl)-3-hydroxypyrrolidine-1-carbonyl)-5,6-dihydro-cyclopenta[c]pyrazol-1(4H)-yl)ethanone] |
| 11.6 | Cc1cccc(N2CCN(C(=O)Cn3nc(C(=O)N4CC5CCC4CC5)c4c3CCC4)CC2)c1C [Example 116, 2-[3-(2-azabicyclo[2.2.2]octane-2-carbonyl)-5,6-dihydrocyclopenta[c]pyrazol-1(4H)-yl]-1-[4-(2,3-dimethylphenyl)piperazin-1-yl]ethan-1-one] |
| 9.25 | Cc1c(Cl)cccc1N1CCN(C(=O)Cn2nc(C(=O)N3CC[C@@H](O)[C@@H](F)C3)c3c2CCC(F)(F)C3)CC1 [Example 378, 1-(4-(3-chloro-2-methylphenyl)piperazin-1-yl)-2-(5,5-difluoro-3-((3 S,4R)-3-fluoro-4-hydroxypiperidine-1-carbonyl)-4,5,6,7-tetrahydro-1H-indazol-1-yl)ethan-1-one] |
| 393 | Cc1cccc(N2CCN(C(=O)C(C)n3nc(C(=O)N4CCC(O)CC4)c4c3CCC4)CC2)c1C (single isomer, unassigned) [Example 489, (R or S)-1-(4-(2,3-dimethylphenyl)piperazin-1-yl)-2-(3-(4-hydroxypiperidine-1-carbonyl)-5,6-dihydro-cyclopenta[c]pyrazol-1(4H)-yl)propan-1-one] |
| 19.9 | Cc1cccc(N2CCN(C(=O)Cn3nc(C(=O)N4CCC(O)CC4)c4c3CCC4C(F)F)CC2)c1C (single isomer, unassigned) [Example 15, 2-[4-(difluoromethyl)-3-(4-hydroxypiperidine-1-carbonyl)-5,6-dihydro-4H-cyclopenta[c]pyrazol-1-yl]-1-[4-(2,3-dimethylphenyl)piperazin-1-yl]ethanone] |
| 2.63 | Cc1cccc(N2CCN(C(=O)Cn3nc(C(=O)N4CCC(O)CC4)c4c3CCCCC4)CC2)c1C [Example 409, 1-(4-(2,3-dimethylphenyl)piperazin-1-yl)-2-(3-(4-hydroxypiperidine-1-carbonyl)-5,6,7,8-tetrahydrocyclohepta[c]pyrazol-1(4H)-yl)ethan-1-one] |
